The source of these data is patent US11040937B2, “Amide derivative” (TOHOKU UNIVERSITY, priority 2014, dated 2021).

Like-named read-outs stand apart in the source and are kept apart here.

The test system of one assay is A549/OPNluc cells. Description: WST assay for cell growth / cell viability. Type of assay: cell-based, human. The following applies: Homo sapiens, A549, A549/OPNluc cells, 48±4 hours, WST-1; read-out: IC50 (concentration for 50% inhibition of cell growth). On the technique in general: Tetrazolium assays rely on reduction of a dye to a coloured formazan, in cell work by metabolically active cells.

Assay [1] concerns human OPN promoter (pOPN1-luc) in A549/OPNluc cells. Description: Luciferase assay: luciferase expression under control of OPN promoter. It counts as cell-based. The following applies: Homo sapiens.
Setting [2] is: A549, A549/OPNluc cells, 48±4 hours, read-out: EC50 (concentration for 50% inhibition of luciferase expression).
Where [3] appears, read: A549, EC50 corrected for decrease in viable cells (RLU % divided by WST %), read-out: corrected EC50.

With `COc1ccc(Oc2cccc(NC(=O)CCNC(=O)c3ccc(O)cc3)c2)cc1` [Compound 26, N-(3-(3-(4-Methoxyphenoxy)phenylamino)-3-oxopropyl)-4-hydroxybenzamide], the IC50 with A549/OPNluc cells was determined as 86.2 µM. Also, the EC50 was found to be 20.3 µM in assay [1] (setting [2]) and 27.1 µM in assay [1] (setting [3]).
Regarding `O=C(CCNC(=O)c1ccc(O)cc1)Nc1cccc(Oc2ccc(Cl)c(Cl)c2)c1` [Compound 38, N-(3-(3-(3,4-dichlorophenoxy)phenylamino)-3-oxopropyl)-4-hydroxybenzamide], the IC50 in the assay with A549/OPNluc cells is 17.3 µM. In addition, the values for the EC50 in assay [1] (setting [2]) and in assay [1] (setting [3]) were 4.6 µM and 7.5 µM, respectively.
For the compound `COc1ccc(Oc2cccc(C(=O)CCNC(=O)c3ccc(O)cc3)c2N)cc1` [Compound 6, N-(3-(2-Amino-3-(4-methoxyphenoxy)phenyl)-3-oxopropyl)-4-hydroxybenzamide], the IC50 in the assay on A549/OPNluc cells was determined as 66 µM. Further, the results for the EC50 in assay [1] (setting [2]) and in assay [1] (setting [3]) were 8.9 µM and 10.2 µM, respectively.
For the compound `Nc1ccc(C(=O)NCCC(=O)c2cccc(Oc3ccc(Cl)cc3)c2N)cc1` [Compound 19, N-(3-(2-Amino-3-(4-chlorophenoxy)phenyl)-3-oxopropyl)-4-aminobenzamide], the IC50 with A549/OPNluc cells was > 100 µM. Also, the EC50 in assay [1] (setting [2]) came to 6.8 µM; in assay [1] (setting [3]) it was 7.8 µM.
